Test results: PubChem BioAssay AID248 (DTP/NCI, 2004)
Values joined by “and” are separate entries in the source; they are usually repeats but may differ in a detail not shown here. Identical values can stand only once. Toxic doses and inconclusive results are not listed. No stated cut-off is given here; in the data, active means T/C of 150% or more; inactive means T/C below 125%.

Tested on: L1210 leukemia ip in BDF1 mice, survival T/C
Experiment: NCI In Vivo Anticancer Drug Screen. Data for tumor model L1210 Leukemia (intraperitoneal) in B6D2F1 (BDF1) mice
Details: endpoint: mean survival time, higher = longer survival
How it was run: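 In this screen, tumor-bearing mice given compound are compared to those given vehicle, and their survival values are reported as a treated-to-control quotient.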

[1] = dose: 100.0 mg/kg/injection, schedule: Q01DX009 (ip), vehicle: saline with Tween-80
[2] = dose: 100.0 mg/kg/injection, schedule: Q04DX002 (ip), vehicle: saline with Tween-80
[3] = dose: 200.0 mg/kg/injection, schedule: Q01DX009 (ip), vehicle: saline with Tween-80
[4] = dose: 200.0 mg/kg/injection, schedule: Q04DX002 (ip), vehicle: saline with Tween-80
[5] = dose: 100.0 mg/kg/injection, schedule: Q01DX009 (ip), vehicle: Klucel (hydroxypropylcellulose) (HPC)
[6] = dose: 100.0 mg/kg/injection, schedule: Q04DX003 (ip), vehicle: Klucel (hydroxypropylcellulose) (HPC)
[7] = dose: 200.0 mg/kg/injection, schedule: Q01DX009 (ip), vehicle: Klucel (hydroxypropylcellulose) (HPC)
[8] = dose: 200.0 mg/kg/injection, schedule: Q04DX003 (ip), vehicle: Klucel (hydroxypropylcellulose) (HPC)
[9] = dose: 400.0 mg/kg/injection, schedule: Q01DX009 (ip), vehicle: Klucel (hydroxypropylcellulose) (HPC)
[10] = dose: 400.0 mg/kg/injection, schedule: Q04DX003 (ip), vehicle: Klucel (hydroxypropylcellulose) (HPC)
[11] = dose: 100.0 mg/kg/injection, schedule: Q04DX002 (ip), vehicle: gum acacia
[12] = dose: 200.0 mg/kg/injection, schedule: Q04DX002 (ip), vehicle: gum acacia
[13] = dose: 50.0 mg/kg/injection, schedule: Q01DX001 (ip), vehicle: saline
[14] = dose: 100.0 mg/kg/injection, schedule: Q01DX001 (ip), vehicle: saline
[15] = dose: 200.0 mg/kg/injection, schedule: Q01DX001 (ip), vehicle: saline
[16] = dose: 400.0 mg/kg/injection, schedule: Q01DX001 (ip), vehicle: saline
[17] = dose: 50.0 mg/kg/injection, schedule: Q04DX003 (ip), vehicle: saline
[18] = dose: 6.25 mg/kg/injection, schedule: Q01DX009 (ip), vehicle: saline with Tween-80
[19] = dose: 100.0 mg/kg/injection, schedule: Q01DX001 (ip), vehicle: carboxymethylcellulose (CMC)
[20] = dose: 200.0 mg/kg/injection, schedule: Q01DX001 (ip), vehicle: carboxymethylcellulose (CMC)
[21] = dose: 400.0 mg/kg/injection, schedule: Q01DX001 (ip), vehicle: carboxymethylcellulose (CMC)

Measured: T/C

c1n[nH]c2c1CCCC2
inactive: dose: 100.0 mg/kg/injection, schedule: Q01DX001 (ip), vehicle: saline with Tween-80 89 % of control | [1] 98 % of control | [2] 97 % of control and 91 % of control | dose: 100.0 mg/kg/injection, schedule: Q04DX003 (ip), vehicle: saline with Tween-80 96 % of control and 104 % of control | dose: 200.0 mg/kg/injection, schedule: Q01DX001 (ip), vehicle: saline with Tween-80 86 % of control | [3] 98 % of control | [4] 94 % of control and 92 % of control | dose: 200.0 mg/kg/injection, schedule: Q04DX003 (ip), vehicle: saline with Tween-80 98 % of control and 108 % of control | dose: 400.0 mg/kg/injection, schedule: Q04DX002 (ip), vehicle: saline with Tween-80 94 % of control | dose: 400.0 mg/kg/injection, schedule: Q04DX003 (ip), vehicle: saline with Tween-80 100 % of control and 92 % of control

OC1CC2CCC(C1)N2 (stereo unspecified)
inactive: dose: 75.0 mg/kg/injection, schedule: Q01DX001 (ip), vehicle: saline 95 % of control | dose: 150.0 mg/kg/injection, schedule: Q01DX001 (ip), vehicle: saline 91 % of control

Cc1ccc(S(=O)(=O)N=[N+]=[N-])cc1
inactive: dose: 100.0 mg/kg/injection, schedule: Q01DX001 (ip), vehicle: Klucel (hydroxypropylcellulose) (HPC) 95 % of control | [5] 107 % of control | [6] 95 % of control | dose: 200.0 mg/kg/injection, schedule: Q01DX001 (ip), vehicle: Klucel (hydroxypropylcellulose) (HPC) 105 % of control | [7] 107 % of control | [8] 104 % of control | dose: 400.0 mg/kg/injection, schedule: Q01DX001 (ip), vehicle: Klucel (hydroxypropylcellulose) (HPC) 100 % of control | [9] 105 % of control | [10] 107 % of control

S=C(NCc1ccco1)Nc1cccc2ccccc12
inactive: [11] 101 % of control | [12] 88 % of control | dose: 400.0 mg/kg/injection, schedule: Q04DX002 (ip), vehicle: gum acacia 98 % of control

CCCCCCC1CCCc2ccc(CCCC)cc21 (stereo unspecified)
inactive: [13] 110 % of control | [14] 106 % of control | [15] 101 % of control | [16] 101 % of control

CC(C)C1=CC23CCC4C(C)(C(=O)O)CCCC4(C)C2CC1C1C(=O)c2ccccc2C(=O)C13 (stereo unspecified)
inactive: [14] 90 % of control | [15] 95 % of control | [16] 91 % of control

CN(C)/N=C\c1ccc(C(=O)O)cc1
inactive: dose: 50.0 mg/kg/injection, schedule: Q04DX003 (ip), vehicle: Klucel (hydroxypropylcellulose) (HPC) 92 % of control | [17] 114 % of control | [6] 88 % of control | dose: 100.0 mg/kg/injection, schedule: Q04DX003 (ip), vehicle: saline 109 % of control | [8] 95 % of control | dose: 200.0 mg/kg/injection, schedule: Q04DX003 (ip), vehicle: saline 114 % of control | [10] 93 % of control | dose: 400.0 mg/kg/injection, schedule: Q04DX003 (ip), vehicle: saline 100 % of control

O=C(Nc1ccc(C(c2ccccc2)(c2ccccc2)c2ccccc2)cc1)C(Cl)Cl
inactive: [5] 91 % of control | [6] 96 % of control | [7] 97 % of control | [8] 95 % of control | [9] 97 % of control | [10] 94 % of control

O=C(CCCN1CCC(O)(c2ccc(C(F)(F)F)cc2)CC1)c1ccc(N2CCC(O)CC2)cc1
inactive: [2] 93 % of control | [4] 100 % of control

C[N+]1(C)C2CCCC1CCC2
inactive: dose: 3.12 mg/kg/injection, schedule: Q04DX002 (ip), vehicle: Klucel (hydroxypropylcellulose) (HPC) 93 % of control | dose: 6.25 mg/kg/injection, schedule: Q04DX002 (ip), vehicle: Klucel (hydroxypropylcellulose) (HPC) 104 % of control | dose: 12.5 mg/kg/injection, schedule: Q04DX002 (ip), vehicle: Klucel (hydroxypropylcellulose) (HPC) 90 % of control

CCC(C(=O)C(C)C(O)C(C)CCc1ccc(C)c(O)c1C(=O)O)C1OC(CC)(C2CCC(O)(CC)C(C)O2)CC1C (stereo unspecified)
inactive: dose: 6.25 mg/kg/injection, schedule: Q04DX002 (ip), vehicle: saline 100 % of control | dose: 12.5 mg/kg/injection, schedule: Q04DX002 (ip), vehicle: saline 92 % of control | dose: 25.0 mg/kg/injection, schedule: Q04DX002 (ip), vehicle: saline 92 % of control | dose: 50.0 mg/kg/injection, schedule: Q04DX002 (ip), vehicle: saline 103 % of control

ClC1(Cl)c2ccccc2-c2ccccc21
inactive: [14] 103 % of control | [15] 113 % of control | [16] 110 % of control

N#CC(c1ccccc1)C(c1ccccc1)C(C(=O)c1ccccc1)c1ccccc1 (stereo unspecified)
inactive: [1] 100 % of control | [3] 93 % of control | dose: 400.0 mg/kg/injection, schedule: Q01DX009 (ip), vehicle: saline with Tween-80 90 % of control

C=COC(=O)Sc1c(Cl)c(Cl)c(Cl)c(Cl)c1Cl
inactive: [13] 100 % of control | [14] 97 % of control | [15] 103 % of control | [16] 92 % of control

CC(=O)Nc1ccc(OC(=O)Nc2ccc(F)c([N+](=O)[O-])c2)cc1
inactive: [5] 118 % of control | [7] 112 % of control

Cc1cc(C)c(C(=O)C2CC=CCC2c2c(C)cc(C)cc2C)c(C)c1 (stereo unspecified)
inactive: [6] 101 % of control | [8] 94 % of control | [10] 95 % of control

CC1(C)N=C(N)N=C(N)N1c1ccc(C(F)(F)F)cc1
inactive: dose: 25.0 mg/kg/injection, schedule: Q01DX001 (ip), vehicle: saline 107 % of control | [13] 117 % of control | [14] 103 % of control and 107 % of control

Fc1c(F)c(F)[c]([Sn]([c]2ccccc2)([c]2ccccc2)[c]2ccccc2)c(F)c1F
inactive: dose: 1.56 mg/kg/injection, schedule: Q01DX009 (ip), vehicle: saline with Tween-80 102 % of control | dose: 3.13 mg/kg/injection, schedule: Q01DX009 (ip), vehicle: saline with Tween-80 94 % of control | [18] 92 % of control

CN(C)CCCN=C1Nc2ccccc2C(=NCCCN(C)C)Nc2ccccc21
inactive: dose: 12.5 mg/kg/injection, schedule: Q01DX009 (ip), vehicle: saline 97 % of control | dose: 12.5 mg/kg/injection, schedule: Q04DX003 (ip), vehicle: saline 102 % of control | dose: 25.0 mg/kg/injection, schedule: Q01DX009 (ip), vehicle: saline 97 % of control | dose: 25.0 mg/kg/injection, schedule: Q04DX003 (ip), vehicle: saline 98 % of control | dose: 50.0 mg/kg/injection, schedule: Q01DX009 (ip), vehicle: saline 94 % of control | [17] 104 % of control

CCCCC(=O)N/N=C/c1ccc(I)cc1
inactive: [19] 91 % of control | [20] 87 % of control | [21] 91 % of control

COc1ccc(S(=O)(=O)N/N=C/C(=O)O)cc1
inactive: [18] 109 % of control | dose: 12.5 mg/kg/injection, schedule: Q01DX009 (ip), vehicle: saline with Tween-80 117 % of control

Clc1ccc([S][Pb]([c]2ccccc2)([c]2ccccc2)[c]2ccccc2)cc1
inactive: [11] 88 % of control | [12] 91 % of control

CCCCCCCN=C(N)c1ccc(C(=O)OC2CCCCC2)cc1
inactive: [14] 96 % of control

NC(CC(=O)O)C(=O)O.[Cu+2] (stereo unspecified)
inactive: dose: 5.0 mg/kg/injection, schedule: Q01DX009 (ip), vehicle: Klucel (hydroxypropylcellulose) (HPC) 106 % of control | dose: 10.0 mg/kg/injection, schedule: Q01DX009 (ip), vehicle: Klucel (hydroxypropylcellulose) (HPC) 104 % of control | dose: 20.0 mg/kg/injection, schedule: Q01DX009 (ip), vehicle: Klucel (hydroxypropylcellulose) (HPC) 108 % of control | dose: 20.0 mg/kg/injection, schedule: Q04DX003 (ip), vehicle: Klucel (hydroxypropylcellulose) (HPC) 100 % of control

CC(=O)OCC1OC(n2c(Br)nc3c(N)ncnc32)C(OC(C)=O)C1OC(C)=O (stereo unspecified)
inactive: [13] 98 % of control | [19] 98 % of control | [14] 95 % of control | dose: 100.0 mg/kg/injection, schedule: Q01DX005 (ip), vehicle: saline 89 % of control | [20] 95 % of control | [15] 104 % of control | dose: 200.0 mg/kg/injection, schedule: Q01DX005 (ip), vehicle: saline 93 % of control | [21] 101 % of control
